Test results as given in patent US10792301B2, “Therapeutic polysaccharide midi-GAGR and related materials and methods” (priority 2015, dated 2020).

Columns and labels:
[1] = test system: pCREB in mouse cortical neurons; experiment: Nuclear pCREB immunostaining in mouse cortical neurons (Example 4); format: cell-based; conditions: 48 h; 1 μM midi-GAGR, dextran, alginate; 0.1 μM LA-GAGR; 0.01 μM HA-GAGR
Method: (§1) To analyze the effect of polysaccharides on neurite outgrowth, primary mouse cortical neurons were treated with vehicle (H2O) or 1 μM of dextran, alginate, or midi-GAGR, 0.01 μM of HA-GAGR, or 0.1 μM of LA-GAGR for 2 days prior to immunocytochemistry using anti-α-tubulin antibody and secondary Alexa488nm antibody. An etched grid coverslip containing 200 numbered boxes was used to select neurons objectively for image acquisition and analysis. A total of 24 boxes were randomly selected per treatment group. All the neurons having total neurite length longer than 4 times of the diameter of neuron cell body were chosen for image analysis. The total length of the neurites of each neuron was measured using Metamorph and used to calculate average total neurite length. […] The intensity of the staining of nuclear pCREB was measured using Metamorph and used to calculate average intensity. In addition, the phosphorylation of CREB in the cytosols of mouse cortical neurons treated with polysaccharides were detected by immunoblotting. […] The protein bands on blots recognized by anti-pCREB (Santa Cruz Biotechnologies) and anti-CREB antibodies were detected on Amersham Hyperfilm™ ECL films (GE Healthcare Life Science) using SuperSignal® West Pico Chemiluminescent Substrate (Thermo Scientific). […]

[2] = test system: pCREB in mouse cortical neurons; experiment: pCREB immunoblotting of neuron cytosols; format: cell-based; conditions: 48 h; 1 μM midi-GAGR, dextran, alginate; 0.1 μM LA-GAGR; 0.01 μM HA-GAGR
Method: as §1

[3] = ABTS Antioxidant Assay Kit; format: biochemical; conditions: 10 μM polysaccharide
Method: The antioxidant capacity of midi-GAGR was measured using ABTS Antioxidant Assay Kit (Zenbio Co.). […] This was slightly stronger than antioxidant capacity of LA-GAGR (10 μM LA-GAGR=15.4 μM trolox) (Table 2).

[4] = test system: primary mouse cortical neurons (E17, DIV4); experiment: Neurite outgrowth in primary mouse cortical neurons; format: cell-based; conditions: 2 days; 1 μM midi-GAGR, dextran, alginate; 0.1 μM LA-GAGR; 0.01 μM HA-GAGR
Method: To analyze the effect of polysaccharides on neurite outgrowth, primary mouse cortical neurons were treated with vehicle (H2O) or 1 μM of dextran, alginate, or midi-GAGR, 0.01 μM of HA-GAGR, or 0.1 μM of LA-GAGR for 2 days prior to immunocytochemistry using anti-α-tubulin antibody and secondary Alexa488nm antibody. An etched grid coverslip containing 200 numbered boxes was used to select neurons objectively for image acquisition and analysis. A total of 24 boxes were randomly selected per treatment group. All the neurons having total neurite length longer than 4 times of the diameter of neuron cell body were chosen for image analysis. The total length of the neurites of each neuron was measured using Metamorph and used to calculate average total neurite length. To examine the effect of polysaccharides on the phosphorylation (activation) of nuclear CREB, neurons were stained with anti-pCREB antibody (Abcam & Santa Cruz biotechnologies, 2nd antibody with Alexa568nm), anti-α-tubulin antibody (Sigma, 2nd antibody with Alexa488nm), and DAPI (Sigma) after two-day incubation with vehicle (H2O) or 1 μM of dextran, alginate, or midi-GAGR, 0.01 μM of HA-GAGR, or 0.1 μM of LA-GAGR. […] The images of neurons on coverslips were taken by confocal microscopy at the same gain (850), offset (˜0.01) and exposure time (2 sec). The intensity of the staining of nuclear pCREB was measured using Metamorph and used to calculate average intensity. In addition, the phosphorylation of CREB in the cytosols of mouse cortical neurons treated with polysaccharides were detected by immunoblotting. Primary mouse neurons were dissected from 16 mouse embryos (E17) and plated in the wells of 6-well plates (1×10^6 cells/well), differentiated for 6 days, and treated with polysaccharides for 48 h. […] The protein bands on blots recognized by anti-pCREB (Santa Cruz Biotechnologies) and anti-CREB antibodies were detected on Amersham Hyperfilm™ ECL films (GE Healthcare Life Science) using SuperSignal® West Pico Chemiluminescent Substrate (Thermo Scientific).

[5] = test system: Mouse cortical neurons (E17, DIV5); experiment: LIVE/DEAD assay, pre-treated mouse cortical neurons with 4HNE, H2O2 or Aβ42; format: cell-based; conditions: pre-treatment 24 h (1 μM midi-GAGR, dextran, alginate; 0.1 μM LA-GAGR; 0.01 μM HA-GAGR); for neuron death after Aβ42 peptide: 2 μM Aβ42 48 h, vehicle about 30%; for neuron death after 4HNE: 10 μM 4HNE 24 h, vehicle ~26%; for neuron death after H2O2: 50 μM H2O2 24 h, vehicle ~25%
Description: (§2) The protective effect of polysaccharides on primary cortical neurons from 4HNE, H2O2, and Aβ42 peptide (Sigma) was examined using LIVE/DEAD® Viability/Cytotoxicity Assay Kit (Life Technologies). Female pregnant mice (BALB/C, E17, Charles River Laboratories International, Inc.) or female pregnant SD rats (E17, bred in house) were anesthetized and dissected to obtain 8-9 embryos per animal. Cortical neurons were isolated from embryonic brains and differentiated on poly-L-lysine-coated coverslips in B27/neurobasal medium. For drug treatment before free radical treatment, mouse cortical neurons (5 days in vitro [DIV5.]) were treated with vehicle (H2O), 1 μM of 5 kD dextran (Sigma), alginate (Sigma), midi-GAGR, 0.01 μM of high acyl gellan gum (HA-GAGR, CPKelco Co.), or 0.1 μM of LA-GAGR for 24 h and then treated with 10 μM 4HNE or 50 μM H2O2 for 24 h, or 2 μM A[…]42 peptide for 48 h prior to viability/cytotoxicity assay. For drug co-treatment with free radicals, rat cortical neurons (DIV5) were treated with 1 μM of dextran, alginate, or midi-GAGR, 0.01 μM of HA-GAGR, or 0.1 μM of LA-GAGR along with either 10 μM 4HNE (24 h) or 2 μM Aβ42 peptide (48 h). To examine the extent to which midi-GAGR-mediated neuroprotection depends on FGFR1, rat cortical neurons (E17, DIV5) were pre-treated with 4 μM SU5402 (Sigma) for 6 h and treated with 10 μM 4HNE and either vehicle or 1 μM midi-GAGR for 24 h prior to cell viability/cytotoxicity assay. As controls, neurons were treated with SU5402, midi-GAGR, 4HNE, 4HNE plus midi-GAGR, or SU5402 plus midi-GAGR.
For cell viability/cytotoxicity measurement, neurons on glass coverslips were incubated in 1×PBS containing 2 μM calcein AM (live cells: green) and 4 μM ethidium homodimer-1 (dead cells: red) for 10 min at 37° C. Immediately thereafter, neurons were imaged by 10×objective using a fluorescence Olympus IX71 microscope (Olympus America Inc., Center Valley, Pa.) and, for the acquisition of high-quality images, using TCS SP5 multi-photon laser scanning confocal microscope.
Midi-GAGR attenuated neurite atrophy caused by free reactive radicals. It is now shown herein that midi-GAGR protect neurons from the death caused by free radical insults. The extent to which midi-GAGR protects the primary culture of rodent cortical neurons from 4HNE and H2O2 was determined. In addition to the radicals, amyloid β peptide (Aβ42) was also tested. Aβ42 peptide is a major causative factor that causes oxidative stress and neuron death. Mouse cortical neurons (E17, DIV5) were treated with 10 μM 4HNE (24 h), 50 μM H2O2 (24 h), or 2 μM Aβ42 peptide (48 h) after the treatment of the neurons with vehicle (H2O), midi-GAGR (1 μM), dextran (1 μM), alginate (1 μM), LA-GAGR (0.1 μM), or HA-GAGR (0.01 μM) for 24 h. The concentrations of 4HNE, H2O2, and Aβ42 peptide were chosen according to their patho-physiological concentrations. The concentrations of LA-GAGR and HA-GAGR were chosen because, within the same volume, the total numbers of sugar units in the polysaccharides at the concentrations are close to that of 1 μM midi-GAGR. The viability of neurons was assessed using LIVE/DEAD® Viability/Cytotoxicity Assay Kit in which membrane-permeant calcein AM is cleaved by esterase in live cells, thus yielding green fluorescence, and membrane-impermeant ethidium homodimer-1 stains the nucleic acids of plasma membrane-compromised cells with red fluorescence. The numbers of green (live) and red (dead) neurons in each condition were counted using Metamorph. Although the intensities of green fluorescent signals in neurons treated with either free radicals or Aβ42 peptide were weak, the neurons were included in the counting. About 8-9% of vehicle-treated neurons died during the process of live/dead cell assay (FIGS. 23A-23F, FIGS. 24A-24C).

[6] = test system: Rat cortical neurons (E17, DIV6); experiment: LIVE/DEAD assay with FGFR1 inhibitor SU5402 and 4HNE; format: cell-based
Description: as §2, with “To examine the extent to which midi-GAGR-mediated neuroprotection depends on FGFR1, rat cortical neurons (E17, DIV5) were pre-treated with 4 μM SU5402 (Sigma) for 6 h and treated with 10 μM 4HNE and either vehicle or 1 μM midi-GAGR for 24 h prior to cell viability/cytotoxicity assay. As controls, neurons were treated with SU5402, midi-GAGR, 4HNE, 4HNE plus midi-GAGR, or SU5402 plus midi-GAGR.” left out

[7] = test system: pCREB in mouse cortical neurons (E17, DIV6); experiment: Nuclear pCREB in midi-GAGR-treated neurons after signaling inhibitors; format: cell-based; conditions: inhibitor 6 h (SU5402 4 μM, staurosporine 3 nM, U0126 10 μM, LY294002 20 μM, KN-62 10 μM, PF-573228 1 μM), then 1 μM midi-GAGR 48 h
Method: To analyze the effect of polysaccharides on neurite outgrowth, primary mouse cortical neurons were treated with vehicle (H2O) or 1 μM of dextran, alginate, or midi-GAGR, 0.01 μM of HA-GAGR, or 0.1 μM of LA-GAGR for 2 days prior to immunocytochemistry using anti-α-tubulin antibody and secondary Alexa488nm antibody. An etched grid coverslip containing 200 numbered boxes was used to select neurons objectively for image acquisition and analysis. A total of 24 boxes were randomly selected per treatment group. All the neurons having total neurite length longer than 4 times of the diameter of neuron cell body were chosen for image analysis. The total length of the neurites of each neuron was measured using Metamorph and used to calculate average total neurite length. To examine the effect of polysaccharides on the phosphorylation (activation) of nuclear CREB, neurons were stained with anti-pCREB antibody (Abcam & Santa Cruz biotechnologies, 2nd antibody with Alexa568nm), anti-α-tubulin antibody (Sigma, 2nd antibody with Alexa488nm), and DAPI (Sigma) after two-day incubation with vehicle (H2O) or 1 μM of dextran, alginate, or midi-GAGR, 0.01 μM of HA-GAGR, or 0.1 μM of LA-GAGR. […] The images of neurons on coverslips were taken by confocal microscopy at the same gain (850), offset (˜0.01) and exposure time (2 sec). The intensity of the staining of nuclear pCREB was measured using Metamorph and used to calculate average intensity. In addition, the phosphorylation of CREB in the cytosols of mouse cortical neurons treated with polysaccharides were detected by immunoblotting. Primary mouse neurons were dissected from 16 mouse embryos (E17) and plated in the wells of 6-well plates (1×10^6 cells/well), differentiated for 6 days, and treated with polysaccharides for 48 h. Then, neurons were harvested and lysed in 1% Igepal CA-630 (Sigma)-containing PMEE buffer plus protease and phosphatase inhibitor cocktails (Sigma) for protein extraction. Extracted proteins were separated in 4-12% NuPAGE Bis-Tris protein gels (Life Technologies) and transferred to nitrocellulose membrane (GE Healthcare Life Science, Pittsburgh, Pa.) using a semidry blotter (Hoefer, Inc. San Francisco, Calif.). The protein bands on blots recognized by anti-pCREB (Santa Cruz Biotechnologies) and anti-CREB antibodies were detected on Amersham Hyperfilm™ ECL films (GE Healthcare Life Science) using SuperSignal® West Pico Chemiluminescent Substrate (Thermo Scientific).
Pharmacological agents were used to inhibit signaling molecules downstream of FGFR1 that mediate CREB phosphorylation. […] PF-573228 (PF, 1 μM) that inhibits FAK which sits at the bottleneck of the signaling pathway downstream of NCAM180 was also included to examine whether NCAM180 is involved in midi-GAGR-mediated CREB phosphorylation or not. […]

[8] = test system: phosphorylated CREB in mouse embryonic cortical neurons; experiment: Nuclear p-CREB immunostaining in cortical neurons (Example 2); format: cell-based; conditions: 1 μM, 24 h
Method: (§3) Differentiated PC12 cells and mouse embryonic cortical neurons (E17, DIV14) were treated with mock, dextran, alginate, HA-GAGR or midi-GAGR (1 μM) for 24 h and fixed in 3.7% paraformaldehyde. The fixed cells and neurons were immunostained with antibodies against α-tubulin and phosopho-CREB (p-CREB) along with DAPI (nucleus).

[9] = test system: phosphorylated CREB in differentiated PC12 cells; experiment: Nuclear p-CREB immunostaining in PC12 cells; format: cell-based; conditions: 1 μM, 24 h
Method: as §3

[10] = test system: Differentiated dopaminergic PC12 cells; experiment: LIVE/DEAD viability of differentiated PC12 cells exposed to 6-OHDA; format: cell-based; conditions: 1 μM for 6 h, then 30 μM 6-OHDA for 24 h
Method: Differentiated dopaminergic PC12 cells and primary mouse embryonic cortical neurons (E17, DIV14) were treated with mock (H2O) or 1 μM of dextran, alginate, HA-GAGR or midi-GAGR for 6 h and insulated by oxidative stressors (30 μM 6-OHDA [PC12] and 10 μM amyloid β peptide [cortical neurons]) for 24 h.

Row | Molecule | fold change in average total neurite length compared to vehicle [4] | neuron death after Aβ42 peptide [5] | neuron death after 4HNE [5] | neuron death after H2O2 [5] | average intensity of pCREB in midi-GAGR-treated neurons after inhibitor pre-treatment [7] | other results
1 | [D-Glc(β1→4)D-GlcA(β1→4)D-Glc(β1→4)L-Rha(α1→3]n [LA-GAGR] | ~1.6 fold | ~10% | 10% | ~13% |  | average intensity of nuclear pCREB compared to vehicle [1]: ~2 fold; levels of pCREB by immunoblotting compared to control [2]: significantly increased; Antioxidant capacity, ABTS assay [3]: 15.4 μM Trolox
2 | Cc1c[nH]c(/C=C2\C(=O)Nc3ccccc32)c1CCC(=O)O [SU5402] |  |  |  |  | significantly decreased | percent of dead cells, pre-treatment then 4HNE ([6]; SU5402 4 μM 6 h, then 10 μM 4HNE 24 h): ~80%; percent of dead cells without 4HNE ([6]; SU5402 4 μM, midi-GAGR 1 μM): did not increase
3 | CN([C@@H](Cc1ccc(OS(=O)(=O)c2cccc3cnccc23)cc1)C(=O)N1CCN(c2ccccc2)CC1)S(=O)(=O)c1cccc2cnccc12 [KN-62] |  |  |  |  | decreased slightly but still statistically significantly | 
4 | CS(=O)(=O)c1cccc(CNc2nc(Nc3ccc4c(c3)CCC(=O)N4)ncc2C(F)(F)F)c1 [PF-573228] |  |  |  |  | did not decrease | 
5 | N#CC(=C(/N)Sc1ccccc1N)/C(C#N)=C(\N)Sc1ccccc1N [U0126] |  |  |  |  | significantly decreased | 
6 | alginate | did not enhance neuritogenesis | did not decrease | reduced | did not reduce |  | increase of the levels of nuclear p-CREB [8]: not significantly increased; increase of the levels of nuclear p-CREB [9]: not significantly increased; 6-OHDA-induced cell death [10]: did not
